As usually defined, the IC50 is the concentration needed to halve the response being measured.

Series [1] has as its target recombinant human Cathepsin K (Homo sapiens (Human), UniProt P43235). Kind of series: Inhibition of human Cathepsin K. The conditions noted are these: substrate Z-Gly-Pro-Arg-AMC 12.5 μM, 60 min, room temperature. It is filed as biochemical. The text has this: Inhibition of Human Cathepsin K
Materials: Microtiterplates (Optiplate-384 F were purchased from PerkinElmer (Prod. No. 6007270). The substrate Z-Gly-Pro-Arg-AMC was from Biomol (Prod.-No. P-142). L-Cysteine (Prod. No. 168149) was from Sigma. Sodium actetate was from Merck (Prod.-No. 6268.0250), EDTA was from Fluka (Prod.-No. 03680). The inhibitor E-64 was purchased from Sigma (Prod.-No. E3132). The recombinant human Cathepsin K proenzyme was purchased from Biomol (Prod. No. SE-367). All other materials were of highest grade commercially available.
The following buffers were used: Activation buffer: 32.5 mM sodium acetate, adjusted to pH 3.5 with HCl; Assay buffer: 150 mM sodium acetate, 4 mM EDTA, 20 mM L-Cysteine, adjusted to pH 5.5 with HCl,
To activate the proenzyme, 5 μl procathepsin K were mixed with 1 ul activation buffer, and incubated at room temperature for 30 min.
5 μL test compound (final concentration 0.1 nM to 100 μM) in aqua bidest (containing 4% DMSO, final DMSO concentration 1%) were mixed with 10 uL of Cathepsin K in assay buffer (final concentration 2 ng/μL) and incubated for 10 min. Then 5 μL of substrate in assay buffer (final concentration 12.5 μM) were added. The plates were then incubated at room temperature for is 60 min. Then, the reaction was stopped by adding 10 μL of E64 in assay buffer (final concentration 1 μM). The fluorescence in the wells was determined using a Molecular Devices SpectraMax M5 Fluorescence Reader (Ex 360 nm, Em 460 nm).
Each assay microtiter plate contains wells with vehicle controls (1% DMSO in bidest) as reference for non-inhibited enzyme activity (100% Ctl; high values) and wells with inhibitor (E64 in bidest+1% DMSO, final concentration 1 μM) as controls for background fluorescence (0% Ctl; low values). The analysis of the data was performed by calculating the percentage of fluorescence in the presence of test compound in comparison to the fluorescence of the vehicle control after subtracting the background fluorescence: (RFU(sample)−RFU(background))*100/(RFU(control)−RFU(background))
Data from these calculations were used to generate IC50 values for inhibition of Cathepsin K, respectively.

Series [2] in a line: Metabolic stability with human liver microsomes. It is filed as in vitro ADME. The settings on record: pH 7.6; pooled human liver microsomes, 37° C., 1 μM test compound, 1 mg/ml protein, NADPH; read-out: In vitro stability in human liver microsome incubations t1/2. The protocol: Determination of Metabolic Stability with Human Liver Microsomes
The metabolic degradation of the test compound is assayed at 37° C. with pooled human liver microsomes. The final incubation volume of 100 μl per time point contains TRIS buffer pH 7.6 (0.1 M), magnesium chloride (5 mM), microsomal protein (1 mg/ml) and the test compound at a final concentration of 1 μM. Following a short preincubation period at 37° C., the reactions are initiated by addition of beta-nicotinamide adenine dinucleotide phosphate, reduced form (NADPH, 1 mM) and terminated by transfering an aliquot into acetonitrile after different time points. Additionally, the NADPH-independent degradation is monitored in incubations without NADPH, terminated at the last time point. The [%] remaining test compound after NADPH independent incubation is reflected by the parameter c(control) (metabolic stability). The quenched incubations are pelleted by centrifugation (10′000 g, 5 min). An aliquot of the supernatant is assayed by LC-MS/MS for the amount of parent compound.
The half-life (t1/2 INVITRO) is determined by the slope of the semilogarithmic plot of the concentration-time profile. The intrinsic clearance (CL_[…]) is calculated by considering the amount of protein in the incubation: CL_[…][μl/min/mg protein]=(In 2/(half-life[min]*protein content[mg/ml]))*1′000. The half-life (t1/2 INVITRO) values of selected compounds in the metabolic stability assay described above are listed in the following table
In general terms: Liver microsomes are a subcellular fraction often used to study metabolism.

Where only a bound is given, the exact number is not on record here.

recombinant human Cathepsin K, sequence (P43235 115-329): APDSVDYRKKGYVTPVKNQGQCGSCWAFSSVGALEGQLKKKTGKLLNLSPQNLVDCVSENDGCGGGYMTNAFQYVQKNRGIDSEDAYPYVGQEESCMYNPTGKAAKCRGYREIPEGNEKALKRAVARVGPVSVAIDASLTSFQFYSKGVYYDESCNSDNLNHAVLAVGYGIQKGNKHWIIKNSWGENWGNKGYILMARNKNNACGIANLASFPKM

Consider `N#C[C@H](Cc1ccc(-c2ccc3c(c2)NC(=O)C3)cc1)NC(=O)[C@H]1NC2CCC1CC2` [Example 2, (2S)—N-[(1S)-cyano-2-[4-(2-oxoindolin-6-yl)phenyl]ethyl]-3-azabicyclo[2.2.2]octane-2-carboxamide], for which the IC50 in series [1] amounted to 4.2 µM. For the same compound, in series [2], the half-life at 1 μM was determined as 2 h.

For the compound `CN1C(=O)Cc2ccc(-c3ccc(C[C@@H](C#N)NC(=O)[C@H]4N[C@H]5CC[C@@H]4CC5)cc3)cc21` [Example 4], the 50% inhibitory concentration (IC50) in series [1] came to 6.3 µM. The half-life at 1 μM in series [2] was 1.47 h.

Regarding `N#Cc1ccc(-c2ccc(C[C@@H](C#N)NC(=O)[C@H]3N[C@H]4CC[C@@H]3CC4)cc2)cc1F` [Example 7, (2S)—N-[(1S)-1-cyano-2-[4-(4-cyano-3-fluoro-phenyl)phenyl]ethyl]-3-azabicyclo[2.2.2]octane-2-carboxamide], the IC50 in series [1] turned out to be 5.7 µM. The half-life at 1 μM in series [2] is more than 2.17 h.

With `CS(=O)(=O)c1cc(-c2ccc(C[C@@H](C#N)NC(=O)[C@H]3NC4CCC3CC4)cc2)ccc1C#N` [Example 8], the concentration for half-maximal inhibition (IC50) in series [1] stood at 5.3 µM. Further, in series [2], the half-life at 1 μM is more than 2.17 h.

Take `CS(=O)(=O)c1cccc(-c2ccc(C[C@@H](C#N)NC(=O)[C@H]3NC4CCC3CC4)cc2)c1` [Example 10]: the half-inhibitory concentration (IC50) in series [1] was determined as 5.3 µM. Further, the half-life at 1 μM in series [2] is more than 2.17 h.

For the compound `N#C[C@H](Cc1ccc(-c2ccc3c(c2)CNC3=O)cc1)NC(=O)[C@H]1NC2CCC1CC2` [Example 11], the 50% inhibitory concentration (IC50) in series [1] turned out to be 11 µM. Also, the half-life at 1 μM in series [2] is more than 2.17 h.

Turning to `CS(=O)(=O)Nc1cccc(-c2ccc(C[C@@H](C#N)NC(=O)[C@H]3NC4CCC3CC4)cc2)c1` [Example 12], the half-inhibitory concentration (IC50) in series [1] was found to be 9.9 µM. The half-life at 1 μM in series [2] came to 1.07 h.

Source of the values: US8877775B2, “Substituted 2-aza-bicyclo[2.2.2]octane-3-carboxylic acid (benzyl-cyano-methyl)-amides inhibitors of cathepsin C” (Boehringer Ingelheim International GmbH, priority 2013, dated 2014).
